# Assay results: patent US20240300957A1, “TETRAZOLE-SUBSTITUTED ETHYL-SULFONE / SULFOXIMINE-PYRIDINE DERIVATIVES” (Boehringer Ingelheim Vetmedica GmbH, priority 2023, published 2024)
# How the values were obtained:
# [1] = tested on: adult R. sanguineus ticks; assay: Contact activity against adult Rhipicephalus sanguineus (coated vial); format: in vivo; conditions: mortality at 48 hours post-treatment, 24° C., 95% relative humidity, read-out: EC50 (contact activity, percentage mortality)
# Experimental: Screening Method to Test Contact Activity of Compounds of Formula (I), (Ia) or (Ib) Against Adult Rhipicephalus Sanguineus Compounds of formula (I), (Ia) and (Tb) formulated in 100% DMSO are diluted in a solution containing acetone and Triton X-100 (0.02%). The resulting formulation is used to coat the inner walls of glass scintillation vials and the filter paper covering the cap of the vial. Once dried, ten adult R. sanguineus ticks are added to the vials. The vials are incubated at 24° C., 95% relative humidity, and 12 hours of light/12 hours of dark until evaluation. Ticks are visually evaluated for mortality at 48 hours post-treatment. Compound efficacy at a given dose is expressed as percentage mortality. A dose response series is implemented to determine EC50 values.
# [2] = tested on: adult Ctenocephalides felis fleas; assay: Contact activity against adult Ctenocephalides felis (coated pipe cleaner in vial); format: in vivo; conditions: adult C. felis, mortality at 72 hours post-treatment, 22° C., 80% relative humidity, read-out: EC50 (contact activity, percentage mortality)
# Experimental: Example 4: Screening Method to Test Contact Activity of Compounds of Formula (I), (Ia) or (Ib) Against Adult Ctenocephalides felis
# Compounds of formula (I), (Ia) and (Ib) dissolved in 100% DMSO are diluted in acetone to a desired concentration. The resulting formulation is used to coat the fibers of a 0.5-inch-long piece of pipe cleaner placed in a glass scintillation vial. The vial is capped with a rubber gasket and filter paper insert. After the acetone has evaporated, ten adult Ctenocephalides felis fleas are added to each vial. The vials are then incubated at 22° C., 80% relative humidity, and 12 hours of light/12 hours of dark until a visual evaluation for mortality is performed at 72 hours post-treatment. Compound efficacy at a given dose is expressed as percentage mortality and adjusted to remove background mortality observed in control vials containing DMSO only. A dose response series of treated vials is implemented to determine EC50 values.
# adult C. felis fleas = assay: Ingestion activity against adult Ctenocephalides felis (artificial membrane feeding, bovine blood); format: in vivo; conditions: bovine blood via artificial membrane, motility 48 h post treatment, read-out: EC50 (ingestion activity, % motility reduction)
# Experimental: Example 6: Screening Method to Test Ingestion Activity of Compounds of Formula (I), (Ia) or (Ib) Against Adult Ctenocephalides felis Compounds of formula (I), (Ia) and (Ib) dissolved in 100% DMSO are added to bovine blood and offered via an artificial membrane feeding system to adult C. felis fleas. The motility of fleas is then visually inspected 48 h post treatment. Efficacy is expressed in % motility reduction compared to controls containing blood treated with DMSO only. A dose response series is implemented to determine EC50 values.
# Plutella xylostella = assay: Insecticidal test on Plutella xylostella (Chinese cabbage seedling dip); format: in vivo; conditions: 144 h, 6 days after dip treatment, 25° C., read-out: activity level (corrected mortality rate)
# Experimental: Example 14: Insecticidal Test on Plutella xylostella
# The compounds of formula (I), (Ia) and (Ib) of the present invention or salts thereof are separately dispersed in water and diluted to 50 ppm. Ten adults of Plutella xylostella are released onto Chinese cabbage seedlings and allowed to lay eggs thereon. 2 days after the release of the adults, the seedling is dipped in the dispersion for about 30 seconds. After air dried, the seedling is kept in a room at 25° C. 6 days after the dip treatment, the numbers of the dead and alive insects are counted. The corrected mortality rate is calculated according to the following formula and the insecticidal activity was evaluated according to the following criteria.
# [formula] • A: the corrected mortality rate is 100% • B: the corrected mortality rate is 90 to 99% • C: the corrected mortality rate is 80 to 89% • D: the corrected mortality rate is 50 to 79%
# [3] = tested on: 3rd-instar nymphs of Laodelphax striatellus; assay: Insecticidal test on Laodelphax striatellus (rice seedling dip); format: in vivo; conditions: 192 h, 8 days after inoculation, 25° C., read-out: activity level (corrected mortality rate)
# [4] = tested on: 2nd-instar larvae of Spodoptera litura; assay: whole plant or invertebrate; conditions: in Brassica oleracea, foliar, 192 h, read-out: activity level (corrected mortality rate)
SMILES,EC50 (adult C. felis fleas),EC50 [1],EC50 [2],mortality at 50 ppm (Plutella xylostella),mortality at 50 ppm [3],mortality at 50 ppm [4]
CCS(=O)(=O)c1cc(-c2nnnn2-c2ccccc2)cnc1-c1nc2cc(C(F)(F)C(F)(F)F)nnc2n1C [Compound 16],,,,100%,,
CCS(=O)(=O)c1cc(-c2nnn(C(C)C)n2)cnc1-c1nc2cc(C(F)(F)C(F)(F)F)nnc2n1C [Compound 10],,< 10 µM,,100%,100%,
"CCS(=O)(=O)c1cc(-c2nnnn2C2CC2)cnc1-c1nc2cc(C(F)(F)C(F)(F)F)nnc2n1C [Compound 1, 6-[5-(1-cyclopropyltetrazol-5-yl)-3-ethylsulfonyl-2-pyridyl]-7-methyl-3-(1,1,2,2,2-pentafluoroethyl)imidazo[4,5-c]pyridazine]",< 10 µM,10 to 100 µM,,100%,100%,
CCS(=O)(=O)c1cc(-c2nnn(C)n2)cnc1-c1nc2cc(S(=O)(=O)C(F)(F)F)nnc2n1C [Compound 9],< 10 µM,,,100%,100%,100%
CCS(=O)(=O)c1cc(-c2nnnn2C)cnc1-c1nc2cc(C(F)(F)C(F)(F)F)nnc2n1C [Compound 4],< 10 µM,,,,100%,

# Now from value to molecule, other results behind:
EC50 (adult C. felis fleas),SMILES,EC50 [1],EC50 [2],mortality at 50 ppm (Plutella xylostella),mortality at 50 ppm [3],mortality at 50 ppm [4]
10 to 100 µM,"CCS(=O)(=O)c1cc(-c2nnn(C)n2)cnc1-c1nc2cc(C(F)(F)C(F)(F)F)nnc2n1C [Compound 7, 6-[3-ethylsulfonyl-5-(2-methyltetrazol-5-yl)-2-pyridyl]-7-methyl-3-(1,1,2,2,2-pentafluoroethyl)imidazo[4,5-c]pyridazine]",10 to 100 µM,< 10 µM,,,
10 to 100 µM,"CCS(=O)(=O)c1cc(-n2nnnc2C2CC2)cnc1-c1nc2cc(C(F)(F)C(F)(F)F)nnc2n1C [Compound 2, 6-[5-(5-cyclopropyltetrazol-1-yl)-3-ethylsulfonyl-2-pyridyl]-7-methyl-3-(1,1,2,2,2-pentafluoroethyl)imidazo[4,5-c]pyridazine]",,,,,
10 to 100 µM,CCS(=O)(=O)c1cc(-n2nnnc2C)cnc1-c1nc2cc(C(F)(F)C(F)(F)F)nnc2n1C [Compound 12],,,,,
< 10 µM,CCn1nnnc1-c1cnc(-c2nc3cc(C(F)(F)C(F)(F)F)nnc3n2C)c(S(=O)(=O)CC)c1 [Compound 6],,,,,
< 10 µM,CCS(=O)(=O)c1cc(-c2nnn(C)n2)cnc1-c1nc2cc(C(F)(F)C(F)(F)F)cnc2n1C [Compound 14],10 to 100 µM,10 to 100 µM,100%,,100%
< 10 µM,CCS(=O)(=O)c1cc(-c2nnnn2C)cnc1-c1nc2cc(C(F)(F)C(F)(F)F)cnc2n1C [Compound 15],,,100%,,
10 to 100 µM,CCS(=O)(=O)c1cc(-c2nnn(C)n2)cnc1-c1ncc(C(=O)NCC(F)(F)F)n1C [Compound 8],,,,,
